{
  "source": "patent US20140329776A1",
  "about": "“Mitochondria-Targeted Antioxidants for Treatment of Age-Related Brain Disorders” (MITOTECH S.A., priority 2011, published 2014)",
  "key": {"[1]": {"test_system": "chronically alcoholised rats", "assay": "elevated plus maze test of chronically alcoholised rats", "format": "in vivo, rat", "details": "SkQ1 250 nM solution orally every two days for 20 days, vs Negative Control", "experimental": "FIG. 10 is a graphic representation showing behavior parameters in the elevated plus-maze test of chronically alcoholised rats in % to intact control. (*−p<0.05; ** −p<0.005 to negative control; #—p<0.05, ##—p<0.01, to intact control);\n(§1) Male albino rats had free access to a 15% ethanol solution, as well as to food and water. After 6 months of alcoholisation, animals with average consumption more than 11 ml of 15% ethanol solution were divided into two even groups and subjected to the following treatment. The Negative Control group (n=16) (chronically alcoholised rats) were orally administered 1 ml per kg of isotonic 0.9% NaCl solution every two days for 20 days during alcohol deprivation. The SkQ1 group (n=17) (chronically alcoholised rats) were orally administered 1 ml per kg of SkQ1 250 nM solution every two days for 20 days during alcohol deprivation. The Intact Control group (n=10) (animals had no previous contact with ethanol) were orally administered 1 ml per kg of normal physiological solution every two days for 20 days.\nAfter this course of drug administration, the effect on behavioral parameters was observed using the open field test, the elevated plus maze test, and the Porsolt forced swimming test."}, "Wistar rats [2]": {"test_system": "Wistar rats", "details": "open field test; cited from earlier work"}, "Wistar rats [3]": {"test_system": "Wistar rats", "assay": "open field test 4 hours after ethanol narcosis", "format": "in vivo, rat", "details": "SkQ1 250 nM orally after ethanol narcosis; vs negative control, p<0.05", "experimental": "FIG. 5 is a schematic representation of the behavior parameters in the open field test 4 hours after ethanol narcosis of all groups in % to intact control. (*−p<0.05 for SKQ-1 250 nM compared to negative control);\nIn these experiments, 6 groups of experimental animals (Wistar rats) were used. (1) The Intact Control group (n=12), had no ethanol narcosis, and were orally administered a normal isotonic 0.9% NaCl solution; (2) the Negative Control group (n=12) was orally administered a normal physiological solution after ethanol narcosis; (3) The SkQ1 50 nM control group (n=12) was orally administered SkQ1 in a concentration 50 nM after ethanol narcosis; (4) The SkQ1 250 nM control group (n=12) was orally administered SkQ1 in a concentration of 250 nM after ethanol narcosis; (5) The SkQ1 1250 nM control group (n=12) was orally administered SkQ1 in a concentration of 1250 nM after ethanol narcosis; (6) the SkQ1 1250 nM intr control group (n=13) was intraperitoneally administered SkQ1 in a concentration of 1250 nM after ethanol narcosis.\nIn the Negative Control group ethanol intoxication caused a decrease of locomotor activity compared to Intact Control group: decreased track length (p<0.05), movement time (p<0.05), mean speed (p<0.05) and increased immobilization time (p<0.05) (FIG. 4). […]"}, "[4]": {"test_system": "chronically alcoholised rats", "assay": "consumption of 15% ethanol solution after deprivation; body weight", "format": "in vivo, rat", "experimental": "FIG. 12 is a graphic representation showing the consumption of 15% ethanol solution after deprivation in ml (*−p<0.01 on 1st day of alcoholisation SKQ-1 to negative control; #—p<0,05 for average ethanol consumption for 1-36 days SKQ-1 to negative control).\nas §1\nAfter behavioral testing, ethanol consumption of 15% solution was measured for 45 days. The level of ethanol consumption during first day in the SkQ1 group was lower (p<0.01) than in the Negative Control group. The decreased ethanol consumption during first day indicates lower level of ethanol craving after SkQ1 administration. […]"}, "Wistar rats [5]": {"test_system": "Wistar rats", "assay": "acoustical startle reflex, pre-impulse inhibition in offspring of rats with hyperhomocysteinemia", "format": "in vivo, rat", "details": "pups day 45", "source_text": "FIG. 13 is a graphic representation showing the inhibition of startle reaction to loud stimulus by pre-impulse in rats, where the histogram bars indicate the mean level of startle reaction after pre-stimulus as % to that of control group of rats (without hyperhomocisteinemia). l-m corresponds to group of rats treated with high L-methionine diet, and skq+lm corresponds to group of rats treated with high L-methionine diet and SkQ1.\nFIG. 14 is a graphic representation showing habituation of rats to double acoustic stimulus in normal conditions, under hyperhomocisteinemia and under hyperhomocisteinemia treated with SkQ1, where motor reaction to the double stimulus and P values for different pairs of groups is indicated.\nAn experiment was performed on 161 female Wistar rats (n=12) with body weight 200 g-250 g and their offspring (n=149) from 0 to 1.5 months old. All animals were SPF-category and were housed under the standard conditions according to GLP-regulations (controlled microbiological conditions, light-dark cycle 12/12 hours, ventilation rate 10-12 V/h, room temperature 22+2° C., with maximum change 1° C. per day, humidity 30-70%). Rats were housed in individual cages with free access to food and water.\nEach female rat was held with 3 male rats for one night. First day of the pregnancy was considered to be the day when spermatozoon were found in a vaginal smear. […]"}},
  "data": [
    {"smiles": "CC1=C(C)C(=O)C(CCCCCCCCCC[P+](c2ccccc2)(c2ccccc2)c2ccccc2)=CC1=O", "note": "[SkQ1, plastoquinonyl decyltriphenyl-phosphonium]", "values": [
      {"measurement": "number of looking out from closed arms", "setting": "[1]", "value": "increased"},
      {"measurement": "rearing", "setting": "[1]; p<0.005", "value": "increased"},
      {"measurement": "movement time in central zone", "setting": "[1]; p<0.05", "value": "increased"},
      {"measurement": "track length in closed arms", "setting": "[1]; p<0.05", "value": "increased"},
      {"measurement": "difference in number of squares crossed between 14-month-old and 3-month-old rats", "setting": "Wistar rats [2]", "value": "abolished"},
      {"measurement": "immobilization time", "setting": "Wistar rats [3]", "value": "decreasing"},
      {"measurement": "track length", "setting": "Wistar rats [3]", "value": "increasing"},
      {"measurement": "average ethanol consumption during the next month, lower than Negative Control", "setting": "[4]; p<0.05", "value": "~2", "unit": "×"},
      {"measurement": "level of ethanol consumption during first day", "setting": "[4]; vs Negative Control, p<0.01", "value": "lower"},
      {"measurement": "parameters of pre-impulse inhibition of the progeny", "setting": "Wistar rats [5]; SkQ1 250 nM/kg orally to mother rats once per 2 d during lactation", "value": "normalized"},
      {"measurement": "non stable and very high reflex reaction on sound stimuli (effect of hyperhomocisteinemia)", "setting": "Wistar rats [5]; SkQ1-treated group", "value": "significantly reduced"}
    ]}
  ]
}
